Data on 15 molecules can be found in patent US8158657B2, “Heterocycles substituted pyridine derivatives and antifungal agent containing thereof” (Eisai R&D Management Co., Ltd., priority 2005, dated 2012).

Converted amounts (≈) assume the structure as drawn.

Experiment [1] deals with C. albicans CAF2-1 strain. As to the kind of experiment: Anti-Candida activity, MIC measurement. Format: cell-based. To be noted: CAF21STRAIN, C. albicans CAF2-1, RPMI1640, 42-48 hours at 35° C., visual inspection, read-out: Anti-Candida Activity (minimum inhibitory concentration, MIC). The essentials: (§1)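 C. albicans CAF2-1 was grown 48 h at 30° C. in SDB and diluted in RPMI1640 to 1.2×10^3 cells/mL. Frozen A. fumigatus Tsukuba was diluted to 4.5×10^3 cells/mL. Compounds, two-fold serially diluted in DMSO from 2.5 mg/mL, were cultured aerobically with fungi for 42-48 h at 35° C.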

In experiment [2] the test system is A. fumigatus Tsukuba strain. As to the kind of experiment: Anti-Aspergillus activity, MIC measurement. Format: cell-based. To be noted: RPMI1640, 42-48 hours at 35° C., visual inspection, read-out: Anti-Aspergillus Activity (minimum inhibitory concentration, MIC). The essentials: as §1

As to `Nc1ccc(-c2cc(Cc3ccc(OCc4ccc(F)cc4F)nc3)no2)c(N)n1` [Example 153, 3-(3-(6-(2,4-Difluoro-benzyloxy)-pyridin-3-ylmethyl)-isoxazol-5-yl)-pyridin-2,6-diamine], the MIC in experiment [1] is 1.56 mg/L (≈ 3.81 µM); in experiment [2], 0.39 mg/L (≈ 0.953 µM).
In the same order, the values of `Nc1ccc(-c2cc(Cc3ccc(COc4ccccn4)nc3)no2)c(N)n1` [Example 154] are 0.78 mg/L (≈ 2.08 µM) and 1.56 mg/L (≈ 4.17 µM).
As to `Cc1ccc(Cc2ccc(Cc3cc(-c4ccc(N)nc4N)on3)s2)cc1` [Example 156, 3-(3-(5-(4-Methyl-benzyl)-thiophen-2-ylmethyl)-isoxazol-5-yl)-pyridin-2,6-diamine], the MIC in experiment [1] and in experiment [2] was 0.2 mg/L (≈ 0.531 µM) in each case.
Turning to `Nc1ccc(-c2cc(Cc3ccc(OCc4ccc(F)cn4)c(F)c3)no2)c(N)n1` [Example 157, 3-(3-(3-Fluoro-4-(5-fluoro-pyridin-2-ylmethoxy)-benzyl)-isoxazol-5-yl)pyridin-2,6-diamine], the MIC in experiment [1] was 3.13 mg/L (≈ 7.65 µM); in experiment [2] it was 0.78 mg/L (≈ 1.91 µM).
For `Nc1ccc(-c2cc(Cc3ccc(OCc4ccccn4)cc3F)no2)c(N)n1` [Example 158, 3-(3-(2-Fluoro-4-(pyridin-2-ylmethoxy)-benzyl)-isoxazol-5-yl)-pyridin-2,6-diamine] the same measures were 1.56 mg/L (≈ 3.99 µM) and 3.13 mg/L (≈ 8 µM).
For the molecule `Nc1ccc(-c2cc(Cc3ccc(CCc4ccccn4)cc3)no2)c(N)n1` [Example 159, 3-(3-(4-(2-Pyridin-2-yl-ethyl)-benzyl)-isoxazol-5-yl)-pyridin-2,6-diamine], the results for the MIC in experiment [1] and in experiment [2] were 0.78 mg/L (≈ 2.1 µM) and 3.13 mg/L (≈ 8.43 µM), respectively.
For `Nc1ccc(-c2cc(Cc3ccn(Cc4cccc(F)c4)c3)no2)c(N)n1` [Example 160, 3-(3-(1-(3-Fluoro-benzyl)-1H-pyrrol-3-ylmethyl)-isoxazol-5-yl)-pyridin-2,6-diamine] the same measures were 0.39 mg/L (≈ 1.07 µM) and 0.78 mg/L (≈ 2.15 µM).
Regarding `Nc1ccc(-c2cc(Cc3ccc(Sc4ccccc4)nc3)no2)c(N)n1` [Example 161, 3-(3-(6-Phenylsulfanyl-pyridin-3-ylmethyl)-isoxazol-5-yl)-pyridin-2,6-diamine], the MIC in experiment [1] and in experiment [2] was 0.39 mg/L (≈ 1.04 µM) throughout.
As for `COc1cccc(COc2ccc(Cc3cc(-c4ccc(N)nc4N)on3)cc2)c1` [Example 162, 3-(3-(4-(3-Methoxy-benzyloxy)-benzyl)-isoxazol-5-yl)-pyridin-2,6-diamine], the MIC came out at 0.78 mg/L (≈ 1.94 µM) in experiment [1] and 0.39 mg/L (≈ 0.969 µM) in experiment [2].
In the same order, the values of `COc1cccc(COc2ccc(Cc3cc(-c4ccc(N)nc4N)on3)cc2)n1` [Example 163, 3-(3-(4-(6-Methoxy-pyridin-2-ylmethoxy)-benzyl)-isoxazol-5-yl)-pyridin-2,6-diamine] are 3.13 mg/L (≈ 7.76 µM) and 1.56 mg/L (≈ 3.87 µM).
In the same order, the values of `Nc1ccc(-c2cc(Cc3ccc(Oc4cccnc4)nc3)no2)c(N)n1` [Example 164, 3-(3-(6-(Pyridin-3-yloxy)-pyridin-3-ylmethyl)-isoxazol-5-yl)-pyridin-2,6-diamine] are 6.25 mg/L (≈ 17.3 µM) and 6.25 mg/L (≈ 17.3 µM).
For `COCc1ccc(-c2cc(Cc3ccc(Cc4ccc(C)o4)cc3)no2)c(N)n1` [Example 165] the same measures were 0.78 mg/L (≈ 2 µM) and 1.56 mg/L (≈ 4.01 µM).
Take `COCc1ccc(-c2cc(Cc3ccc(Oc4ccccc4)nc3)no2)c(N)n1` [Example 167]: the MIC amounted to 1.56 mg/L (≈ 4.02 µM) in experiment [1] and 0.78 mg/L (≈ 2.01 µM) in experiment [2].
`COCc1ccc(-c2cc(Cc3ccc(Cc4ccc(Cl)o4)cc3)no2)c(N)n1` [Example 168, 3-(3-(4-(5-Chloro-furan-2-ylmethyl)-benzyl)-isoxazol-5-yl)-6-methoxymethyl-pyridin-2-ylamine]: the MIC in experiment [1] and in experiment [2] was 0.78 mg/L (≈ 1.9 µM) in each case.
As to `Nc1nc(CO)ccc1-c1cc(Cc2ccc(OCc3ccccc3)cc2)no1` [Example 169], the MIC in experiment [1] and in experiment [2] was 0.39 mg/L (≈ 1.01 µM) each time.
